# Source: PubChem BioAssay (NCI)
#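 Method: 48-hour compound exposure of cells in 96-well plates, five concentrations, linear interpolation of endpoints. Here, GI50 denotes the concentration required for 50% inhibition of growth. TGI is the concentration that stops growth completely.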
# Columns and labels:
# Test in all cases: NCI tumour cell line growth inhibition, 48 h
# 786-0 renal = test system: 786-0 renal
# A498 renal = test system: A498 renal
# A549 NSCLC = test system: A549 NSCLC
# ACHN renal = test system: ACHN renal
# CAKI-1 renal = test system: CAKI-1 renal
# CCRF-CEM leukemia = test system: CCRF-CEM leukemia
# COLO 205 colon = test system: COLO 205 colon
# DU-145 prostate = test system: DU-145 prostate
# EKVX NSCLC = test system: EKVX NSCLC
# HCC-2998 colon = test system: HCC-2998 colon
# HCT-116 colon = test system: HCT-116 colon
# HCT-15 colon = test system: HCT-15 colon
# HL-60(TB) leukemia = test system: HL-60(TB) leukemia
# HOP-62 NSCLC = test system: HOP-62 NSCLC
# HS 578T breast = test system: HS 578T breast
# HT29 colon = test system: HT29 colon
# IGROV1 ovarian = test system: IGROV1 ovarian
# K-562 leukemia = test system: K-562 leukemia
# KM12 colon = test system: KM12 colon
# LOX IMVI melanoma = test system: LOX IMVI melanoma
# M14 melanoma = test system: M14 melanoma
# MALME-3M melanoma = test system: MALME-3M melanoma
# MCF7 breast = test system: MCF7 breast
# MDA-MB-231 breast = test system: MDA-MB-231 breast
# MDA-MB-435 = test system: MDA-MB-435
# MOLT-4 leukemia = test system: MOLT-4 leukemia
# NCI-H226 lung = test system: NCI-H226 lung
# NCI-H23 lung = test system: NCI-H23 lung
# NCI-H460 lung = test system: NCI-H460 lung
# NCI-H522 lung = test system: NCI-H522 lung
# NCI/ADR-RES ovarian = test system: NCI/ADR-RES ovarian
# OVCAR-3 ovarian = test system: OVCAR-3 ovarian
# OVCAR-4 ovarian = test system: OVCAR-4 ovarian
# OVCAR-5 ovarian = test system: OVCAR-5 ovarian
# OVCAR-8 ovarian = test system: OVCAR-8 ovarian
# RPMI-8226 leukemia = test system: RPMI-8226 leukemia
# RXF 393 renal = test system: RXF 393 renal
# SF-268 CNS = test system: SF-268 CNS
# SF-295 CNS = test system: SF-295 CNS
# SF-539 CNS = test system: SF-539 CNS
# SK-MEL-2 melanoma = test system: SK-MEL-2 melanoma
# SK-MEL-28 melanoma = test system: SK-MEL-28 melanoma
# SK-MEL-5 melanoma = test system: SK-MEL-5 melanoma
# SK-OV-3 ovarian = test system: SK-OV-3 ovarian
# SN12C renal = test system: SN12C renal
# SNB-19 CNS = test system: SNB-19 CNS
# SNB-75 CNS = test system: SNB-75 CNS
# SR leukemia = test system: SR leukemia
# SW-620 colon = test system: SW-620 colon
# TK-10 renal = test system: TK-10 renal
# U251 CNS = test system: U251 CNS
# UACC-257 melanoma = test system: UACC-257 melanoma
# UACC-62 melanoma = test system: UACC-62 melanoma
# UO-31 renal = test system: UO-31 renal
# PC-3 prostate = test system: PC-3 prostate
smiles,measurement,setting,value
COc1ccc2cc(C#Cc3ccc(-n4c(/C=C/c5cc(OC)c(OC)c(OC)c5)nc5ccccc5c4=O)c(C)c3)ccc2c1,GI50,786-0 renal,> 100 µM
same,TGI,786-0 renal,> 100 µM
same,GI50,A498 renal,> 100 µM
same,TGI,A498 renal,> 100 µM
same,GI50,A549 NSCLC,> 100 µM
same,TGI,A549 NSCLC,> 100 µM
same,GI50,ACHN renal,> 100 µM
same,TGI,ACHN renal,> 100 µM
same,GI50,CAKI-1 renal,4.91 µM
same,TGI,CAKI-1 renal,> 100 µM
same,GI50,CCRF-CEM leukemia,> 100 µM
same,TGI,CCRF-CEM leukemia,> 100 µM
same,GI50,COLO 205 colon,6.96 µM
same,TGI,COLO 205 colon,> 100 µM
same,GI50,DU-145 prostate,> 100 µM
same,TGI,DU-145 prostate,> 100 µM
same,GI50,EKVX NSCLC,24.1 µM
same,TGI,EKVX NSCLC,> 100 µM
same,GI50,HCC-2998 colon,> 100 µM
same,TGI,HCC-2998 colon,> 100 µM
same,GI50,HCT-116 colon,3.53 µM
same,TGI,HCT-116 colon,> 100 µM
same,GI50,HCT-15 colon,1.22 µM
same,TGI,HCT-15 colon,> 100 µM
same,GI50,HL-60(TB) leukemia,0.686 µM
same,TGI,HL-60(TB) leukemia,> 100 µM
same,GI50,HOP-62 NSCLC,> 100 µM
same,TGI,HOP-62 NSCLC,> 100 µM
same,GI50,HS 578T breast,> 100 µM
same,TGI,HS 578T breast,> 100 µM
same,GI50,HT29 colon,3.41 µM
same,TGI,HT29 colon,> 100 µM
same,GI50,IGROV1 ovarian,> 100 µM
same,TGI,IGROV1 ovarian,> 100 µM
same,GI50,K-562 leukemia,0.882 µM
same,TGI,K-562 leukemia,> 100 µM
same,GI50,KM12 colon,4.3 µM
same,TGI,KM12 colon,> 100 µM
same,GI50,LOX IMVI melanoma,5.94 µM
same,TGI,LOX IMVI melanoma,> 100 µM
same,GI50,M14 melanoma,12.7 µM
same,TGI,M14 melanoma,> 100 µM
same,GI50,MALME-3M melanoma,42.6 µM
same,TGI,MALME-3M melanoma,> 100 µM
same,GI50,MCF7 breast,63.8 µM
same,TGI,MCF7 breast,> 100 µM
same,GI50,MDA-MB-231 breast,37 µM
same,TGI,MDA-MB-231 breast,> 100 µM
same,GI50,MDA-MB-435,> 100 µM
same,TGI,MDA-MB-435,> 100 µM
same,GI50,MOLT-4 leukemia,4.66 µM
same,TGI,MOLT-4 leukemia,> 100 µM
same,GI50,NCI-H226 lung,> 100 µM
same,TGI,NCI-H226 lung,> 100 µM
same,GI50,NCI-H23 lung,40.5 µM
same,TGI,NCI-H23 lung,> 100 µM
same,GI50,NCI-H460 lung,2.48 µM
same,TGI,NCI-H460 lung,> 100 µM
same,GI50,NCI-H522 lung,> 100 µM
same,TGI,NCI-H522 lung,> 100 µM
same,GI50,NCI/ADR-RES ovarian,> 100 µM
same,TGI,NCI/ADR-RES ovarian,> 100 µM
same,GI50,OVCAR-3 ovarian,19.3 µM
same,TGI,OVCAR-3 ovarian,> 100 µM
same,GI50,OVCAR-4 ovarian,> 100 µM
same,TGI,OVCAR-4 ovarian,> 100 µM
same,GI50,OVCAR-5 ovarian,> 100 µM
same,TGI,OVCAR-5 ovarian,> 100 µM
same,GI50,OVCAR-8 ovarian,> 100 µM
same,TGI,OVCAR-8 ovarian,> 100 µM
same,GI50,RPMI-8226 leukemia,0.821 µM
same,TGI,RPMI-8226 leukemia,> 100 µM
same,GI50,RXF 393 renal,> 100 µM
same,TGI,RXF 393 renal,> 100 µM
same,GI50,SF-268 CNS,> 100 µM
same,TGI,SF-268 CNS,> 100 µM
same,GI50,SF-295 CNS,> 100 µM
same,TGI,SF-295 CNS,> 100 µM
same,GI50,SF-539 CNS,> 100 µM
same,TGI,SF-539 CNS,> 100 µM
same,GI50,SK-MEL-2 melanoma,> 100 µM
same,TGI,SK-MEL-2 melanoma,> 100 µM
same,GI50,SK-MEL-28 melanoma,> 100 µM
same,TGI,SK-MEL-28 melanoma,> 100 µM
same,GI50,SK-MEL-5 melanoma,1.85 µM
same,TGI,SK-MEL-5 melanoma,> 100 µM
same,GI50,SK-OV-3 ovarian,> 100 µM
same,TGI,SK-OV-3 ovarian,> 100 µM
same,GI50,SN12C renal,> 100 µM
same,TGI,SN12C renal,> 100 µM
same,GI50,SNB-19 CNS,> 100 µM
same,TGI,SNB-19 CNS,> 100 µM
same,GI50,SNB-75 CNS,> 100 µM
same,TGI,SNB-75 CNS,> 100 µM
same,GI50,SR leukemia,0.395 µM
same,TGI,SR leukemia,> 100 µM
same,GI50,SW-620 colon,17.2 µM
same,TGI,SW-620 colon,> 100 µM
same,GI50,TK-10 renal,> 100 µM
same,TGI,TK-10 renal,> 100 µM
same,GI50,U251 CNS,7.4 µM
same,TGI,U251 CNS,> 100 µM
same,GI50,UACC-257 melanoma,6.24 µM
same,TGI,UACC-257 melanoma,> 100 µM
same,GI50,UACC-62 melanoma,2.19 µM
same,TGI,UACC-62 melanoma,> 100 µM
same,GI50,UO-31 renal,> 100 µM
same,TGI,UO-31 renal,> 100 µM
Cc1ncc([N+](=O)[O-])n1CCn1ccnc1[N+](=O)[O-],TGI,786-0 renal,> 100 µM
same,TGI,A498 renal,> 100 µM
same,TGI,A549 NSCLC,> 100 µM
same,TGI,ACHN renal,> 100 µM
same,TGI,CCRF-CEM leukemia,> 100 µM
same,TGI,EKVX NSCLC,> 100 µM
same,TGI,HCC-2998 colon,> 100 µM
same,TGI,HCT-116 colon,> 100 µM
same,TGI,HCT-15 colon,> 100 µM
same,TGI,HL-60(TB) leukemia,> 100 µM
same,TGI,HOP-62 NSCLC,> 100 µM
same,TGI,HS 578T breast,> 100 µM
same,TGI,HT29 colon,> 100 µM
same,TGI,K-562 leukemia,> 100 µM
same,TGI,KM12 colon,> 100 µM
same,TGI,MALME-3M melanoma,> 100 µM
same,TGI,MCF7 breast,> 100 µM
same,TGI,MOLT-4 leukemia,> 100 µM
same,TGI,NCI-H226 lung,> 100 µM
same,TGI,NCI-H23 lung,> 100 µM
same,TGI,NCI-H460 lung,> 100 µM
same,TGI,NCI-H522 lung,> 100 µM
same,TGI,OVCAR-3 ovarian,> 100 µM
same,TGI,OVCAR-5 ovarian,> 100 µM
same,TGI,OVCAR-8 ovarian,> 100 µM
same,TGI,PC-3 prostate,> 100 µM
same,TGI,RPMI-8226 leukemia,> 100 µM
same,TGI,SF-268 CNS,> 100 µM
same,TGI,SF-295 CNS,> 100 µM
same,TGI,SF-539 CNS,> 100 µM
same,TGI,SK-MEL-2 melanoma,> 100 µM
same,TGI,SK-MEL-28 melanoma,> 100 µM
same,TGI,SK-MEL-5 melanoma,> 100 µM
same,TGI,SN12C renal,> 100 µM
same,TGI,SNB-75 CNS,> 100 µM
same,TGI,SR leukemia,> 100 µM
same,TGI,SW-620 colon,> 100 µM
same,TGI,TK-10 renal,29 µM
same,TGI,U251 CNS,> 100 µM
same,TGI,UACC-257 melanoma,> 100 µM
